According to patent publication US9157064B2, “Methods for generating inner ear cells in vitro” (The Board of Trustees of the Leland Stanford Junior …, priority 2011, dated 2015):
Entries after “also recorded” stand apart in the source; their conditions may differ.

B1: Wnt3a: recombinant Wnt3a (protein, UniProt P56704 19-352, looked up)
Protein Wnt-3a: SYPIWWSLAVGPQYSSLGSQPILCASIPGLVPKQLRFCRNYVEIMPSVAEGIKIGIQECQHQFRGRRWNCTTVHDSLAIFGPVLDKATRESAFVHAIASAGVAFAVTRSCAEGTAAICGCSSRHQGSPGKGWKWGGCSEDIEFGGMVSREFADARENRPDARSAMNRHNNEAGRQAIASHMHLKCKCHGLSGSCEVKTCWWSQPDFRAIGDFLKDKYDSASEMVVEKHRESRGWVETLRPRYTYFKVPTERDLVYYEASPNFCEPNPETGSFGTRDRTCNVSSHGIDGCDLLCCGRGHNARAERRREKCRCVFHWCCYVSCQECTRVYDVHTCK
B2: BMP4: activator of BMP signaling (protein, UniProt P12644 293-408, looked up)
Bone morphogenetic protein 4: SPKHHSQRARKKNKNCRRHSLYVDFSDVGWNDWIVAPPGYQAFYCHGDCPFPLADHLNSTNHAIVQTLVNSVNSSIPKACCVPTELSAISMLYLDEYDKVVLKNYQEMVVEGCGCR
B3: R-spondin 1: Roof plate-specific Spondin 1, natural enhancer of the canonical Wnt pathway (protein, UniProt Q2MKA7 21-263, looked up)
R-spondin-1: SRGIKGKRQRRISAEGSQACAKGCELCSEVNGCLKCSPKLFILLERNDIRQVGVCLPSCPPGYFDARNPDMNKCIKCKIEHCEACFSHNFCTKCKEGLYLHKGRCYPACPEGSSAANGTMECSSPAQCEMSEWSPWGPCSKKQQLCGFRRGSEERTRRVLHAPVGDHAACSDTKETRRCTVRRVPCPEGQKRRKGGQGRRENANRNLARKESKEAGAGSRRRKGQQQQQQQGTVGPLTSAGPA
B4: Noggin: naturally occurring inhibitor of BMP signaling (protein, UniProt Q13253 28-232, looked up)
Noggin: QHYLHIRPAPSDNLPLVDLIEHPDPIFDPKEKDLNETLLRSLLGGHYDPGFMATSPPEDRPGGGGGAAGGAEDLAELDQLLRQRPSGAMPSEIKGLEFSEGLAQGKKQRLSKKLRRKLQMWLWSQTFCPVLYAWNDLGSRFWPRYVKVGSCFSKRSCSVPEGMVCKPSKSVHLTVLRWRCQRRGGQRCGWIPIQYPIISECKCSC

Assays:
ESC-derived cultures = experiment: Otic induction of ESC-derived embryoid body cultures (Pax2 immunostaining); type: cell-based, mouse; settings: D/S/I-treated ESC-derived embryoid body cells; SU5402 treatment between d5 and d8
Experimental: Embryoid bodies were transferred into fibronectin-coated 4-well dishes (Greiner) at 30 embryoid bodies per well and cultured for three days in DMEM/F12 (Invitrogen, mixed 1:1) supplemented with N2 and B27 (Invitrogen), bFGF (R&D Systems, 25 ng/ml), heparin sulfate (Sigma, 50 ng/ml), and ampicillin ([…]). FGF3 (recombinant human FGF-3, R&D Systems) and FGF10 (recombinant human FGF-10, R&D Systems) were used at 25 ng/ml in parallel experiments. The FGF receptor antagonist SU5402 (a gift from Pfizer R&D) was used at […]. After FGF-treatment, the cells were detached using 0.05% trypsin/EDTA (Sigma) in PBS, mildly triturated, and passed 1:10 into individual wells of 4-well dishes coated with either fibronectin, gelatin, MEFs, or mitotically inactivated embryonic (E18) chicken utricle stromal cells. Utricle stromal cells were prepared from 20 utricles whose sensory epithelia were removed after 40 min treatment with 0.5 mg/ml thermolysin (Sigma) in DMEM/F12 at 37 C. After addition of 5% serum, the sensory epithelia were removed and used in unrelated experiments. […]
(§1) For immunocytochemistry, the cells were fixed with 4% paraformaldehyde in PBS for 15 min at room temperature. […] Images were acquired with a Zeiss Axioimager/LSM 5 Exciter fluorescence and confocal microscope. […]

[1] = system: ESC-derived embryoid bodies; experiment: Suppression of meso- and endodermal differentiation in ESC-derived embryoid bodies (Brachyury/GATA6 immunostaining); type: cell-based, mouse; settings: single factor
Experimental: ES cell line C9 and iPS cell line #25-5 were used for all guidance experiments. MEF feeder cells were removed either by weaning the cells off for several passages or by pre-culturing the cells for 40 min allowing MEFs to attach. For embryoid body formation, the cells were dissociated with 0.25% trypsin-EDTA (Invitrogen) and cultured in poly(2-hydroxyethyl methacrylate)-coated 6-well cell suspension plates (Greiner). Coating was done by covering the plates with 1 ml of 2% poly(2 hydroxyethyl methacrylate) (Sigma) solution in 1:1 ethanol/acetone. After 2 min, the solution was completely aspirated and the plates were dried with open lid for 20 min in a cell culture cabinet. After three washes with PBS, the ES and iPS cells were added at a density of 50 cells/ml and cultured for 5 days in DMEM (Invitrogen) with 15% FBS, 0.1 mM MEM non-essential amino acids, […] 2-mercaptoethanol, 2 mM L-glutamine and […] ampicillin. For otic induction experiments, the following growth factors or reagents were added to the medium: recombinant mouse Dickkopf related protein 1 (Dkk-1) at 100 ng/ml (R&D Systems), SIS3 at […] (Sigma), and IGF1 at 10 ng/ml (Sigma). […]
as §1

[2] = system: ESC- and iPSC-derived cells; experiment: Differentiation cultures of D/S/I and bFGF-treated ESC- and iPSC-derived cells with added supplements; type: cell-based, mouse; settings: differentiation cultures supplemented, data not shown
From the text: Future identification of these signals could provide important clues about the mechanisms controlling the initiation of hair bundle growth during embryonic development.
Beside FGF signaling, activation of the canonical Wnt pathway has been proposed to further promote otic commitment of Pax2-expressing cells of the FGF-dependent pre-otic field of the chicken embryo (Ohyama et al., 2006).

hESCs = experiment: Otic induction from hESCs (PAX2-expressing otic progenitor cells); type: cell-based, human; settings: hESC-derived cultures; factor added in the induction and/or stabilization phase (FIG. 23)
Experimental: FIG. 22. Optimization of lengths of incubations with factors for culturing cell populations comprising otic progenitor cells from hESCs. (a) and (b). A culture that is enriched 8.3% for PAX2-expressing otic progenitor cells may be generated by the incubation of hESCs with DKK1/SIS3/IFG-1 for 5 days, followed by incubation of the resultant embryoid bodies comprising preplacodal ectodermal cells with bFGF for 3 days.
FIG. 23A-C. Culturing in the presence of different factors impacts the proportion of otic progenitor cells produced. (a) Culturing in the presence of BMP4 reduces the proportion of otic progenitor cells produced. (b) Culturing in the presence of Noggin during the induction phase of otic progenitor cell fate acquisition, and restricting the exposure of cells to BMP4 to the stabilization phase of otic progenitor cell fate acquisition increases the proportion of otic progenitor cells produced. (c) Culturing in the presence of R-spondin 1 during the induction phase of otic progenitor cell fate acquisition increases the proportion of otic progenitor cells produced.
FIG. 23D. Culturing in the presence of FGF19 during both the induction phase and the stabilization phase of otic progenitor cell fate acquisition increases the proportion of otic progenitor cells produced.

| Molecule | proportion of otic progenitor cells produced (hESCs) | other results |
| --- | --- | --- |
| Cc1c[nH]c(/C=C2\C(=O)Nc3ccccc32)c1CCC(=O)O [SU5402] | – | Pax2 induction / Pax2 expression (ESC-derived cultures): abolishment of Pax2 induction; also recorded: virtually diminished Pax2 expression |
| COc1cc2c(cc1OC)CN(C(=O)/C=C/c1c(-c3ccccc3)n(C)c3ncccc13)CC2 [SIS3, reference compound] | – | number of Brachyury-positive cells, factor alone [1]: significantly reduced |
| [Cl-].[Li+] [LiCl, reference compound] | – | ability or efficiency to generate hair cell-like cells [2]: did not observe an increase |
| FGF19: fibroblast growth factor 19, ligand for FGFR4 | increases | – |
| B1 | – | ability or efficiency to generate hair cell-like cells [2]: did not observe an increase |
| B2 | reduces | – |
| B3 | increases | – |
| B4 | increases | – |
